Measured values reported in patent US20210251963A1, “UREA DERIVATIVES FOR USE IN THE TREATMENT OF SUBJECTS WITH ELEVATED EXPRESSION AND/OR ACTIVITY OF SRPK1” (Scandion Oncology A/S, priority 2018, published 2021).

Assays:
[1] = system: HT29 parental colon cancer cells; experiment: Cell viability (MTT assay); format: cell-based; conditions: SN38 Log Concentration (μM) -1, 72 hours
Procedure: (§1) SN38 was applied to a SN38 sensitive colon cancer cell line (“HT29 parental”) and to a SN38 resistant colon cancer cell line (“HT29 SN38 resistant”).
(§2) The Log Concentration (μM) used are—1 for SN38. Data represents cell viability data (MTT assay) and cells were incubated with drugs for 72 hours.

[2] = system: HT29 SN38 resistant colon cancer cells; experiment: Cell viability (MTT assay); format: cell-based; conditions: for cell viability, % of untreated control cells: HT29 SN38 resistant
Procedure: as §1, §2
The Log Concentrations (μM) used are—1 for SN38, and 1.5 for both Srpkin340 and Sphinx 31. Data represents cell viability data (MTT assay) and cells were incubated with drugs for 72 hours.

| Structure (SMILES) | cell viability, % of untreated control cells [1] | cell viability, % of untreated control cells ([2]; SN38 0.1 μM alone, 72 hours, Example 4) | cell viability, % of untreated control cells ([2]; SN38 Log Concentration (μM) -1, 72 hours, Example 3) | restoration of SN38 sensitivity in SN38 resistant HT29 colon cancer cells ([2]; Log Concentration (μM) 1.5 of inhibitor with SN38 -1, 72 hours) |
| --- | --- | --- | --- | --- |
| CCc1c2c(nc3ccc(O)cc13)-c1cc3c(c(=O)n1C2)COC(=O)[C@]3(O)CC [SN38, reference compound] | 27% | 75% | 73% | – |
| O=C(Nc1cc(C(F)(F)F)ccc1N1CCN(Cc2ccccn2)CC1)c1ccc(-c2ccncc2)o1 [Sphinx31, reference compound] | – | – | – | can restore the SN38 sensitivity |
